Assay results as given in ChEMBL document CHEMBL3400064, “Synthesis and biological evaluation of 2-arylbenzimidazoles targeting Leishmania donovani” (Bioorg Med Chem Lett, 2015).

How the values were obtained:
Leishmania donovani [1] = assay: Antileishmanial activity against axenic amastigote Leishmania donovani MHOM/SD/1962/1S-Cl2d assessed as inhibition of parasite growth after 24 hrs at 15 uM by alamarBlue assay; type: functional
Leishmania donovani [2] = assay: Antileishmanial activity against axenic amastigote Leishmania donovani MHOM/SD/1962/1S-Cl2d assessed as inhibition of parasite growth after 24 hrs at 5 uM by alamarBlue assay; type: functional
Leishmania donovani [3] = assay: Antileishmanial activity against axenic amastigote Leishmania donovani MHOM/SD/1962/1S-Cl2d assessed as inhibition of parasite growth after 24 hrs at 50 uM by alamarBlue assay; type: functional
Leishmania donovani [4] = assay: Antileishmanial activity against Leishmania donovani MHOM/SD/1962/1S-Cl2d infected THP1 cells assessed as inhibition of intracellular […] amastigote at 5 uM after 48 hrs at 50 uM by Bright-Glo luciferase assay; type: functional, THP-1
[5] = Cytotoxicity against mouse NIH/3T3 cells assessed as viability at 15 uM after 48 hrs by alamarBlue assay; type: cell-based, NIH3T3; conditions: read-out: Activity
Leishmania donovani [6] = assay: Antileishmanial activity against Leishmania donovani MHOM/SD/1962/1S-Cl2d infected THP1 cells assessed as inhibition of intracellular […] amastigote after 48 hrs at 50 uM by Bright-Glo luciferase assay; type: functional, organism-based; conditions: THP-1, 48 h
[7] = Cytotoxicity against mouse NIH/3T3 cells assessed as viability after 48 hrs by alamarBlue assay; type: cell-based; conditions: NIH3T3, 48 h

In the case of `CC(=O)Nc1cccc(-c2nc3ccccc3[nH]2)c1`, the inhibition at 15 µM (Leishmania donovani [1]) is reported as 21%, the inhibition at 5 µM (Leishmania donovani [2]) is reported as 20% and the inhibition at 50 µM (Leishmania donovani [3]) is reported as 56%.
`Cn1cccc1C(=O)Nc1cccc(-c2nc3ccccc3[nH]2)c1` showed an inhibition at 50 µM (Leishmania donovani [3]) of 33%.
Compound `O=C(Nc1cccc(-c2nc3ccccc3[nH]2)c1)c1cscn1` has an inhibition at 50 µM (Leishmania donovani [3]) of 45%.
Compound `Cc1cccc(C(=O)Nc2cccc(-c3nc4ccccc4[nH]3)c2)c1` has an inhibition at 15 µM (Leishmania donovani [1]) of 52%, an inhibition at 5 µM (Leishmania donovani [2]) of 26% and an inhibition at 50 µM (Leishmania donovani [3]) of 59%.
With `O=C(Nc1cccc(-c2nc3ccccc3[nH]2)c1)c1cccc(C(F)(F)F)c1` the inhibition at 15 µM (Leishmania donovani [1]) was 68%, the inhibition at 5 µM (Leishmania donovani [2]) was 17% and the inhibition at 50 µM (Leishmania donovani [3]) was 83%.
With `O=C(Nc1cccc(-c2nc3ccccc3[nH]2)c1)c1cccc(Cl)c1` the inhibition at 15 µM (Leishmania donovani [1]) was 60%, the inhibition at 5 µM (Leishmania donovani [2]) was 26% and the inhibition at 50 µM (Leishmania donovani [3]) was 57%.
In the case of `COc1cccc(C(=O)Nc2cccc(-c3nc4ccccc4[nH]3)c2)c1`, the inhibition at 50 µM (Leishmania donovani [3]) is reported as 49%.
Work on `COC(=O)c1cccc(C(=O)Nc2cccc(-c3nc4ccccc4[nH]3)c2)c1` yielded an inhibition at 15 µM (Leishmania donovani [1]) of 74%, an inhibition at 5 µM (Leishmania donovani [2]) of 18% and an inhibition at 50 µM (Leishmania donovani [3]) of 100%.
Work on `Cc1ccccc1C(=O)Nc1cccc(-c2nc3ccccc3[nH]2)c1` yielded an inhibition at 15 µM (Leishmania donovani [1]) of 47%, an inhibition at 5 µM (Leishmania donovani [2]) of 22% and an inhibition at 50 µM (Leishmania donovani [3]) of 55%.
For `O=C(Nc1cccc(-c2nc3ccccc3[nH]2)c1)c1ccccc1C(F)(F)F`, the inhibition at 15 µM (Leishmania donovani [1]) was 73%, the inhibition at 5 µM (Leishmania donovani [2]) was 22% and the inhibition at 50 µM (Leishmania donovani [3]) was 82%.
Work on `COc1ccccc1C(=O)Nc1cccc(-c2nc3ccccc3[nH]2)c1` yielded an inhibition at 15 µM (Leishmania donovani [1]) of 27%, an inhibition at 5 µM (Leishmania donovani [2]) of 23% and an inhibition at 50 µM (Leishmania donovani [3]) of 75%.
For `CC(C)(C)C(=O)Nc1cccc(-c2nc3ccccc3[nH]2)c1`, the inhibition at 15 µM (Leishmania donovani [1]) was 44%, the inhibition at 5 µM (Leishmania donovani [2]) was 27% and the inhibition at 50 µM (Leishmania donovani [3]) was 54%.
In the case of `O=C(Nc1cccc(-c2nc3ccccc3[nH]2)c1)C1CCCCC1`, the “inhibition (INH)” value (Leishmania donovani [4]) is reported as 19.8%, the viability at 48 h, 15 µM [5] is reported as 23.8% and the IC50 (Leishmania donovani [6]) is reported as 8.8 µM. It also gave an inhibition at 15 µM (Leishmania donovani [1]) of 61%, an IC50 [7] of 22.2 µM and an inhibition at 5 µM (Leishmania donovani [2]) of 41%. The inhibition at 50 µM (Leishmania donovani [3]) was 68%.
For `Cc1ccc2[nH]c(-c3cccc(NC(=O)c4cccs4)c3)nc2c1`, the “inhibition (INH)” value (Leishmania donovani [4]) was 4.1%, the viability at 48 h, 15 µM [5] was 14.1% and the IC50 (Leishmania donovani [6]) was 10.5 µM. The inhibition at 15 µM (Leishmania donovani [1]) was 50%, the IC50 [7] was 16.7 µM and the inhibition at 5 µM (Leishmania donovani [2]) was 36%. For the same compound, the inhibition at 50 µM (Leishmania donovani [3]) was 77%.
`O=C(Nc1cccc(-c2nc3cc(Cl)ccc3[nH]2)c1)c1cccs1` gave an inhibition at 15 µM (Leishmania donovani [1]) of 57%, an inhibition at 5 µM (Leishmania donovani [2]) of 11% and an inhibition at 50 µM (Leishmania donovani [3]) of 80%.
For `Cc1cccc2[nH]c(-c3cccc(NC(=O)c4cccs4)c3)nc12`, the “inhibition (INH)” value (Leishmania donovani [4]) was 46.4%, the viability at 48 h, 15 µM [5] was 5.3% and the IC50 (Leishmania donovani [6]) was 17.8 µM. For the same compound, the inhibition at 15 µM (Leishmania donovani [1]) was 56%, the IC50 [7] was over 300 µM and the inhibition at 5 µM (Leishmania donovani [2]) was 32%. It also gave an inhibition at 50 µM (Leishmania donovani [3]) of 83%.
In the case of `Cc1c(NC(=O)c2cccs2)cccc1-c1nc2ccccc2[nH]1`, the inhibition at 50 µM (Leishmania donovani [3]) is reported as 31%.
`COc1ccc(-c2nc3ccccc3[nH]2)cc1NC(=O)c1cccs1` showed an inhibition at 50 µM (Leishmania donovani [3]) of 38%.
For `Cn1c(-c2cccc(NC(=O)c3cccs3)c2)nc2ccccc21`, the “inhibition (INH)” value (Leishmania donovani [4]) was 27.7%, the viability at 48 h, 15 µM [5] was -12.9% and the IC50 (Leishmania donovani [6]) was 22.1 µM. The inhibition at 15 µM (Leishmania donovani [1]) was 56%, the IC50 [7] was 61.3 µM and the inhibition at 5 µM (Leishmania donovani [2]) was 30%. For the same compound, the inhibition at 50 µM (Leishmania donovani [3]) was 74%.
In the case of `O=S(=O)(Nc1cccc(-c2nc3ccccc3[nH]2)c1)c1ccccc1`, the inhibition at 15 µM (Leishmania donovani [1]) is reported as 30%, the inhibition at 5 µM (Leishmania donovani [2]) is reported as 0% and the inhibition at 50 µM (Leishmania donovani [3]) is reported as 52%.
`O=C(Nc1cccc(-c2nc3ccccc3o2)c1)c1cccs1` showed an inhibition at 50 µM (Leishmania donovani [3]) of 34%.
Work on `O=C(Nc1ccc(-c2nc3ccccc3[nH]2)cc1)c1cccs1` yielded an inhibition at 50 µM (Leishmania donovani [3]) of 22%.
With `O=C(Nc1cccc(-c2nc3ccccc3[nH]2)c1)c1ccsc1` the inhibition at 15 µM (Leishmania donovani [1]) was 67%, the inhibition at 5 µM (Leishmania donovani [2]) was 17% and the inhibition at 50 µM (Leishmania donovani [3]) was 83%.
For `O=C(Cc1cccs1)Nc1cccc(-c2nc3ccccc3[nH]2)c1`, the inhibition at 50 µM (Leishmania donovani [3]) was 49%.
Compound `O=C(Nc1cccc(-c2nc3ccccc3[nH]2)c1)c1ccco1` has an inhibition at 50 µM (Leishmania donovani [3]) of 43%.
With `O=C(Nc1cccc(-c2nc3ccccc3[nH]2)c1)c1ccoc1` the inhibition at 15 µM (Leishmania donovani [1]) was 39%, the inhibition at 5 µM (Leishmania donovani [2]) was 19% and the inhibition at 50 µM (Leishmania donovani [3]) was 80%.
`O=C(Nc1cccc(-c2nc3ccccc3[nH]2)c1)c1ccccn1` gave an inhibition at 15 µM (Leishmania donovani [1]) of 35%, an inhibition at 5 µM (Leishmania donovani [2]) of 19% and an inhibition at 50 µM (Leishmania donovani [3]) of 57%.
`O=C(Nc1cccc(-c2nc3ccccc3[nH]2)c1)c1ccccc1F` showed an inhibition at 15 µM (Leishmania donovani [1]) of 37%, an inhibition at 5 µM (Leishmania donovani [2]) of 24% and an inhibition at 50 µM (Leishmania donovani [3]) of 74%.
